Source: patent publication US10266535B2, “Inhibitor of FLT3 kinase and use thereof” (HEFEI INSTITUTES OF PHYSICAL SCIENCE, CHINESE ACADEMY OF …, priority 2015, dated 2019)

Columns and labels:
[1] = test system: TEL-BaF3-BMX (stably expressing BMX kinase); assay: Cell proliferation, Cell Titer-Glo, TEL-BaF3-BMX; assay type: cell-based; details: Mus musculus; incubated for 72 hours
Procedure: (§1) The above cell lines were constructed by our laboratory.
(§2) The number of viable cells was determined by quantification of ATP in living cells using the Cell Titer-Glo® (Promega, USA) chemiluminescence cell viability assay kit.

pro-B cell BaF3 = assay: Cell proliferation, Cell Titer-Glo, BaF3; assay type: cell-based; details: Mus musculus, incubated for 72 hours
Procedure: as §1, §2

[2] = test system: TEL-BaF3-BLK (stably expressing BLK kinase); assay: Cell proliferation, Cell Titer-Glo, TEL-BaF3-BLK; assay type: cell-based; details: Mus musculus; incubated for 72 hours
Procedure: as §1, §2

[3] = test system: TPR-MET-BaF3 (stably expressing MET kinase); assay: Cell proliferation, Cell Titer-Glo, TPR-MET-BaF3; assay type: cell-based; details: Mus musculus; incubated for 72 hours
Procedure: as §1, §2

[4] = test system: MV4-11 (expressing FLT3/ITD mutant gene); assay: Cell proliferation, Cell Titer-Glo, MV4-11; assay type: cell-based; details: Homo sapiens, MV4-11; incubated for 72 hours; read-out: MV4-11 IC50
Procedure: as §1, §2

[5] = test system: OCI-AML-3 (expressing FLT3 A680V mutant gene); assay: Cell proliferation, Cell Titer-Glo, OCI-AML3; assay type: cell-based; details: Homo sapiens, incubated for 72 hours
Procedure: as §1, §2

[6] = test system: BaF3-FLT3-ITD-F691L (stably expressing FLT3/ITD F691L mutant activated kinase); assay: Cell proliferation, Cell Titer-Glo, BaF3-FLT3-ITD-F691L; assay type: cell-based; details: Mus musculus; incubated for 72 hours; read-out: BaF3-FLT3-ITD-F691L IC50
Procedure: as §1, §2

[7] = test system: U937 (expressing wild-type FLT3 gene); assay: Cell proliferation, Cell Titer-Glo, U937; assay type: cell-based, human; details: Homo sapiens, U-937, 72 h, incubated for 72 hours; read-out: U937 IC50
Procedure: as §1, §2

[8] = test system: TEL-BaF3-FLT3/ITD (stably expressing FLT3/ITD mutant activated kinase); assay: Cell proliferation, Cell Titer-Glo, TEL-BaF3-FLT3/ITD; assay type: cell-based, mouse; details: Mus musculus, 72 h, incubated for 72 hours; read-out: TEL-BaF3-FLT3/ITD IC50
Procedure: as §1, §2

[9] = test system: MOLM-13 (expressing FLT3/ITD mutant gene and wild-type FLT3 gene); assay: Cell proliferation, Cell Titer-Glo, MOLM-13; assay type: cell-based; details: Homo sapiens, MOLM-13; incubated for 72 hours; read-out: MOLM-13 IC50
Procedure: as §1, §2

BTK protein kinase = BTK protein kinase (Homo sapiens (Human), UniProt Q06187); assay: In vitro inhibition activity (enzymatic activity), ADP-Glo, BTK; assay type: biochemical; details: ATP 10 μM
[10] = test system: TEL-cKIT-BaF3 (stably expressing cKIT kinase); assay: Cell proliferation, Cell Titer-Glo, TEL-cKIT-BaF3; assay type: cell-based; details: Mus musculus; incubated for 72 hours
Procedure: as §1, §2

[11] = test system: TEL-BaF3-FLT3-D835Y (stably expressing FLT3 D835Y mutant activated kinase); assay: Cell proliferation, Cell Titer-Glo, TEL-BaF3-FLT3-D835Y; assay type: cell-based; details: Mus musculus; incubated for 72 hours; read-out: TEL-BaF3-FLT3-D835Y IC50
Procedure: as §1, §2

[12] = test system: TEL-BaF3-EGFR (stably expressing EGFR kinase); assay: Cell proliferation, Cell Titer-Glo, TEL-BaF3-EGFR; assay type: cell-based; details: Mus musculus; incubated for 72 hours
Procedure: as §1, §2

[13] = test system: TEL-JAK1-BaF3 (stably expressing JAK1 kinase); assay: Cell proliferation, Cell Titer-Glo, TEL-JAK1-BaF3; assay type: cell-based; details: Mus musculus; incubated for 72 hours
Procedure: as §1, §2

[14] = test system: MOLM-14 (expressing FLT3/ITD mutant gene and wild-type FLT3 gene); assay: Cell proliferation, Cell Titer-Glo, MOLM-14; assay type: cell-based; details: Homo sapiens, MOLM-14; incubated for 72 hours; read-out: MOLM-14 IC50
Procedure: as §1, §2

[15] = test system: BaF3-FLT3-ITD-D835Y (stably expressing FLT3/ITD D835Y mutant activated kinase); assay: Cell proliferation, Cell Titer-Glo, BaF3-FLT3-ITD-D835Y; assay type: cell-based; details: Mus musculus; incubated for 72 hours; read-out: BaF3-FLT3-ITD-D835Y IC50
Procedure: as §1, §2

BTK protein kinase, sequence (Q06187 whole entry): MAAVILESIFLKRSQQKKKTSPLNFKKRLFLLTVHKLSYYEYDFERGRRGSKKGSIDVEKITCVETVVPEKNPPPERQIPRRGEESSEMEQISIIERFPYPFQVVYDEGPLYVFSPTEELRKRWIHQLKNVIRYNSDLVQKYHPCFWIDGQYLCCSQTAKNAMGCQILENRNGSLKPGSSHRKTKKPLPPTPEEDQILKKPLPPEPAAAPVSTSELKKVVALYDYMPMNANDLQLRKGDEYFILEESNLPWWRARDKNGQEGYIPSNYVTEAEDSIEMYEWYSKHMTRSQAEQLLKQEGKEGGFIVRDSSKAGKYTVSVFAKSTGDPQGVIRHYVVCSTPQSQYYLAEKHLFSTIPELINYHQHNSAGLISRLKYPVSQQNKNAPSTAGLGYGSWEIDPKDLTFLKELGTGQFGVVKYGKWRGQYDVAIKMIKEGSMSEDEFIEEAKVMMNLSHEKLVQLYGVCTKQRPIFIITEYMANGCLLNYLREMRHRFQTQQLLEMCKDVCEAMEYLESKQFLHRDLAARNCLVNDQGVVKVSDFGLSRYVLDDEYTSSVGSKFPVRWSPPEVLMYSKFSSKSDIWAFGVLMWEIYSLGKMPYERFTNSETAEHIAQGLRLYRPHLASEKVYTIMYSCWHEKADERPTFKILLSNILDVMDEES

| Compound | IC50 [1] [nM] | IC50 (pro-B cell BaF3) [nM] | IC50 [2] [nM] | IC50 [3] [nM] | IC50 [4] [nM] | IC50 [5] [nM] | IC50 [6] [nM] | IC50 [7] [nM] | IC50 [8] [nM] | IC50 [9] [nM] | IC50 (BTK protein kinase) [nM] | IC50 [10] [nM] | IC50 [11] [nM] | IC50 [12] [nM] | IC50 [13] [nM] | IC50 [14] [nM] | IC50 [15] [nM] |
| --- | --- | --- | --- | --- | --- | --- | --- | --- | --- | --- | --- | --- | --- | --- | --- | --- | --- |
| CC(C)[C@@H](N)C(=O)N1CCC[C@@H](n2nc(-c3ccc(Oc4ccccc4)cc3)c3c(N)ncnc32)C1 (stereo in doubt) [Compound 45, (R)-2-amino-1-((R)-3-(4-amino-(4-phenoxyphenyl)-1H-pyrazolo[3,4-d]pyrimidin-1-yl)piperidin-1-yl)-3-methylbutanone] | 92 | 1400 | 96 | 1380 | 27 | 4200 | 370 | > 10000 | 17 | 25 | 260 | – | – | – | – | – | – |
| Nc1ncnc2c1c(-c1ccc(Oc3ccccc3)cc1)nn2[C@@H]1CCCN(C(=O)C(F)(F)F)C1 [Compound 2, (R)-1-(3-(4-amino-(4-phenoxyphenyl)-1H-pyrazolo[3,4-d]pyrimidin-1-yl)piperidin-1-yl)-2,2,2-trifluoroethanone] | 82 | 2000 | 630 | 4700 | 300 | – | – | > 10000 | 120 | 290 | – | 1900 | 130 | 6100 | 1400 | 720 | – |
| Nc1ncnc2c1c(-c1ccc(Oc3ccccc3)cc1)nn2[C@@H]1CCCN(S(N)(=O)=O)C1 [Compound 4, (R)-3-(4-amino-(4-phenoxyphenyl)-1H-pyrazolo[3,4-d]pyrimidin-1-yl)piperidin-1-sulfonamide] | 820 | > 10000 | 1400 | > 10000 | 300 | – | – | – | – | 230 | – | 4900 | 160 | > 10000 | > 10000 | 680 | – |
| Nc1ncnc2c1c(-c1ccc(Oc3ccccc3)cc1)nn2[C@@H]1CCCN(C(=O)[C@H](N)Cc2c[nH]c3ccccc23)C1 [Compound 8, (R)-2-amino-1-((R)-3-(4-amino-(4-phenoxyphenyl)-1H-pyrazolo[3,4-d]pyrimidin-1-yl)piperidin-1-yl)-3-(1H-indol-3-yl)propan-1-one] | 550 | 620 | 560 | – | 270 | – | – | 1000 | 270 | 180 | 254 | 750 | 89 | 1400 | 270 | 310 | – |
| Nc1ncnc2c1c(-c1ccc(Oc3ccccc3)cc1)nn2[C@@H]1CCCN(C(=O)[C@H](N)Cc2ccc(O)cc2)C1 [Compound 10, (R)-2-amino-1-((R)-3-(4-amino-(4-phenoxyphenyl)-1H-pyrazolo[3,4-d]pyrimidin-1-yl)piperidin-1-yl)-3-(4-hydroxyphenyl)propan-1-one] | 840 | 1200 | 1000 | 1400 | 61 | – | – | 3400 | 110 | 64 | 128 | 1100 | 64 | 3700 | 400 | 110 | – |
| CC(C)C[C@H](N)C(=O)N1CCC[C@@H](n2nc(-c3ccc(Oc4ccccc4)cc3)c3c(N)ncnc32)C1 [Compound 12, (S)-2-amino-1-((R)-3-(4-amino-(4-phenoxyphenyl)-1H-pyrazolo[3,4-d]pyrimidin-1-yl)piperidin-1-yl)-4-methylpentan-1-one] | 600 | – | 960 | 1500 | 64 | – | – | 1600 | 45 | 46 | 349 | 1000 | 48 | – | 520 | 77 | – |
| N#CCC(=O)N1CCC[C@@H](n2nc(-c3ccc(Oc4ccccc4)cc3)c3c(N)ncnc32)C1 [Compound 20] | 47 | > 10000 | 520 | > 10000 | 200 | – | – | > 10000 | 120 | 160 | – | 3300 | 150 | 4700 | > 10000 | 410 | – |
| CC(O)C(=O)N1CCC[C@@H](n2nc(-c3ccc(Oc4ccccc4)cc3)c3c(N)ncnc32)C1 (stereo partly drawn) [Compound 23, 1-((R)-3-(4-amino-(4-phenoxyphenyl)-1H-pyrazolo[3,4-d]pyrimidin-1-yl)piperidin-1-yl)-2-hydroxylpropan-1-one] | 88 | > 10000 | 2800 | > 10000 | 320 | – | – | 4300 | 91 | 290 | 204 | 4800 | 430 | 6500 | > 10000 | 630 | – |
| CC[C@@H](C)[C@@H](N)C(=O)N1CCC[C@@H](n2nc(-c3ccc(Oc4ccccc4)cc3)c3c(N)ncnc32)C1 [Compound 25, (2R,3R)-2-amino-1-((R)-3-(4-amino-(4-phenoxyphenyl)-1H-pyrazolo[3,4-d]pyrimidin-1-yl)piperidin-1-yl)-3-methylpentan-1-one] | 510 | 1700 | 1100 | 1700 | 120 | – | – | 1900 | 88 | 120 | 216 | 3100 | 180 | 890 | 3300 | 190 | – |
| Nc1ncnc2c1c(-c1ccc(Oc3ccccc3)cc1)nn2[C@@H]1CCCN(C(=O)[C@H](N)Cc2ccccc2)C1 [Compound 26, (R)-2-amino-1-((R)-3-(4-amino-(4-phenoxyphenyl)-1H-pyrazolo[3,4-d]pyrimidin-1-yl)piperidin-1-yl)-3-phenylpropan-1-one] | 1300 | 1500 | 2900 | 2000 | 280 | – | – | 2400 | 160 | 200 | 98 | 3500 | 360 | 1300 | 2000 | 290 | – |
| NCC(=O)N1CCC[C@@H](n2nc(-c3ccc(Oc4ccccc4)cc3)c3c(N)ncnc32)C1 [Compound 43, (R)-2-amino-1-(3-(4-amino-(4-phenoxyphenyl)-1H-pyrazolo[3,4-d]pyrimidin-1-yl)piperidin-1-yl)ethanone] | 22 | 3800 | 120 | 2770 | 22 | 5980 | 1100 | 7210 | 7 | 20 | 28 | – | – | – | – | 28 | 410 |
